Measurements as given in ChEMBL document CHEMBL3804753, “Substituted quinolines as noncovalent proteasome inhibitors” (Bioorg Med Chem, 2016).
Active and inactive are the calls of the source. The rule behind the calls is not given here.

Biological target: T1, Proteasome Macropain subunit MB1 (Homo sapiens) (UniProt P28074)
T1 sequence (whole entry): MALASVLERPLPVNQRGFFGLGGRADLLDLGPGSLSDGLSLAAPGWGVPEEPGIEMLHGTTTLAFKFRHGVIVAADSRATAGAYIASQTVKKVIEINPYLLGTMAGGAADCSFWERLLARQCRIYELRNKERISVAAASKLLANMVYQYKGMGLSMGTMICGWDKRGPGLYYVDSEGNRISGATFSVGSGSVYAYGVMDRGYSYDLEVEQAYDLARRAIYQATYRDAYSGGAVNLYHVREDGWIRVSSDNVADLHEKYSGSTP
Assay: Inhibition of human 20S proteasome chymotryptic-like activity using Suc-LLVY-AMC as substrate assessed as fluorescence quinching control by fluorescence assay

inhibition: inactive
SMILES: Cc1cc(C)c2cc(-c3ccccc3)c(-c3ccccc3)nc2c1
